This passage reports IC50 results from patent US12552753B2, “Methods and compositions for targeting Tregs using CCR8 inhibitors” (Nanjing Immunophage Biomedical Co., Ltd., priority 2020, dated 2026).

SMILES strings stand for the structures. Counter-ions that a name gives are not always drawn.

CCR8, sequence (P51685 whole entry, the tested form may be a part): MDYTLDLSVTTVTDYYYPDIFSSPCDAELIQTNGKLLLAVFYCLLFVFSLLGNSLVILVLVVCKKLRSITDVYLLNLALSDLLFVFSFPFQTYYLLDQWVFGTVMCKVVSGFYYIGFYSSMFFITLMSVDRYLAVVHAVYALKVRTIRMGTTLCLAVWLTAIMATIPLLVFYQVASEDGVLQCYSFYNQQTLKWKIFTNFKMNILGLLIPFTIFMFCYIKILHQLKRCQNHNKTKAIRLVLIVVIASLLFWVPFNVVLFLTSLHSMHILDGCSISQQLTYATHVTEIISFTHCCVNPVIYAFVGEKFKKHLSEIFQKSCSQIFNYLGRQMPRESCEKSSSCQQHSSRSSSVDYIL

The experiment addresses CCR8 (Homo sapiens, UniProt P51685). Put plainly: Tango assay (Tango-CCR8-Gal4-CHO-K1 cells, CCL1-stimulated, ONE-Glo luminescence). As to conditions: Tango Assay IC50, Inhibition of CCR8 Tango cell in vitro.
In turn, `COC(=O)C(NS(=O)(=O)c1ccc(NC(=O)c2ccccc2C)c(C)c1)C1CCNCC1` (stereo not shown) [Compound 240A, methyl 2-((3-methyl-4-(2-methylbenzamido)phen-yl)sulfonamido)-2-(piperidin-4-yl)acetate hydrochloride] came in with an IC50 of over 100000 nM.
`Cc1cc(S(=O)(=O)NC(C)C23CCN(CC2)CC3)ccc1NC(=O)c1ccccc1C` (stereo not shown) [Compound 241, 2-methyl-N-(2-methyl-4-(N-(1-(quiuclidin-4-yl)ethyl)sulfamoyl)phen-yl)benzamide]: half-maximal inhibition (IC50) required 256 nM.
For the molecule `Cc1ccccc1C(=O)Nc1cc(F)c(S(=O)(=O)N[C@H](C)C2CCNCC2)cc1Cl` [Compound 242A, (R)-N-(2-chloro-5-fluoro-4-(N-(1-(piperidin-4-yl)eth-yl)sulfamoyl)phen-yl)-2-methylbenzamide hydrochloride], the IC50 came out at 15 nM.
The value for `Cc1ccccc1C(=O)Nc1cc(F)c(S(=O)(=O)N[C@@H](C)C2CCNCC2)cc1Cl` [Compound 242B, (S)-N-(2-chloro-5-fluoro-4-(N-(1-(piperidin-4-yl)ethyl)sulfamoyl)phenyl)-2-methylbenzamide hydrochloride] was over 100000 nM; that for `Cc1ccccc1C(=O)Nc1cc(Cl)c(S(=O)(=O)N[C@H](C)C2CCNCC2)cc1Cl` [Compound 243A, (R)-N-(2,5-dichloro-4-(N-(1-(piperidin-4-yl)ethyl)sulfamoyl)phen-yl)-2-methylbenzamide hydrochloride] was 12 nM; that for `Cc1ccccc1C(=O)Nc1cc(Cl)c(S(=O)(=O)N[C@@H](C)C2CCNCC2)cc1Cl` [Compound 243B, (S)-N-(2,5-dichloro-4-(N-(1-(piperidin-4-yl)ethyl)sulfamoyl)phen-yl)-2-methylbenzamide hydrochloride] was over 100000 nM.
Regarding `Cc1ccccc1C(=O)Nc1ccc(S(=O)(=O)N[C@H](C)C2CCNCC2)c(Cl)c1Cl` [Compound 244A, (R)-N-(2,3-dichloro-4-(N-(1-(piperidin-4-yl)ethyl)sulfamoyl)phen-yl)-2-methylbenzamide hydrochloride], half-maximal inhibition (IC50) was put at 104 nM.
Consider `Cc1ccccc1C(=O)Nc1ccc(S(=O)(=O)N[C@H](C)C2CCNCC2)c(C)c1Cl` [Compound 245A, (R)-N-(2-chloro-3-methyl-4-(N-(1-(piperidin-4-yl)ethyl)sulfamoyl)phen-yl)-2-methylbenzamide hydrochloride], for which the IC50 was over 100000 nM.
With `Cc1ccccc1C(=O)Nc1ccc(S(=O)(=O)N[C@H](C)C2CCNCC2)c(F)c1Cl` [Compound 246A, (R)-N-(2-chloro-3-fluoro-4-(N-(1-(piperidin-4-yl)ethyl)sulfamoyl)phenyl)-2-methylbenzamide hydrochloride] the figure was 79 nM; with `Cc1cc(S(=O)(=O)N[C@H](C)C2CCN(C3CCCC3)CC2)ccc1NC(=O)c1ccccc1C` [Compound 247, (R)-N-(4-(N-(1-(1-cyclopentylpiperidin-4-yl)ethyl)sulfamoyl)-2-methylphenyl)-2-methylbenzamide], 1 nM; with `COC(=O)CN1CCC([C@@H](C)NS(=O)(=O)c2ccc(NC(=O)c3ccccc3C)c(C)c2)CC1` [Compound 248, methyl(R)-2-(4-(1-((3-methyl-4-(2-methylbenzamido)phenyl)sulfonamido)ethyl)piperidin-1-yl)acetate], 105 nM.
Take `Cc1cc(S(=O)(=O)N[C@H](C)C2CCNCC2)ccc1NC(=O)c1ccccc1C(F)(F)F` [Compound 249A, (R)-N-(2-methyl-4-(N-(1-(piperidin-4-yl)ethyl)sulfamoyl)phenyl)-2-(trifluoromethyl) benzamide hydrochloride]: the IC50 worked out at 12 nM.
`Cc1cc(S(=O)(=O)N[C@H](C)C2CCNCC2)ccc1NC(=O)c1ccsc1C` [Compound 250A, (R)-2-methyl-N-(2-methyl-4-(N-(1-(piperidin-4-yl)ethyl)sulfamoyl)phenyl)thiophene-3-carboxamide hydrochloride] came in with an IC50 of 105 nM.
On to `Cc1cc(S(=O)(=O)N[C@H](C)C2CCNCC2)ccc1NC(=O)c1ccncc1C` [Compound 251A, (R)-3-methyl-N-(2-methyl-4-(N-(1-(piperidin-4-yl)ethyl)sulfamoyl)phenyl)isonicotinamide hydrochloride], for which the half-inhibitory concentration (IC50) was over 100000 nM.
With `Cc1cc(S(=O)(=O)N[C@H](C)C2CCNCC2)ccc1NC(=O)c1cncs1` [Compound 252A, (R)-N-(2-methyl-4-(N-(1-(piperidin-4-yl)ethyl)sulfamoyl)phenyl)thiazole-5-carboxamide hydrochloride] the figure was over 100000 nM; with `Cc1cc(S(=O)(=O)N[C@H](C)C2CCNCC2)ccc1NC(=O)c1nccs1` [Compound 253A, (R)-N-(2-methyl-4-(N-(1-(piperidin-4-yl)ethyl)sulfamoyl)phenyl)thiazole-2-carboxamide hydrochloride], 851 nM; with `Cc1cc(S(=O)(=O)N[C@H](C)C2CCNCC2)ccc1NC(=O)C1CCC1` [Compound 254, (R)-N-(2-methyl-4-(N-(1-(piperidin-4-yl)ethyl)sulfamoyl)phenyl) cyclobutanecarboxamide], over 100000 nM.
`Cc1cc(S(=O)(=O)NC(C)C2CCNCC2)ccc1NC(=O)c1ccccc1Cl` (stereo not shown) [Compound 255, 2-chloro-N-(2-methyl-4-(N-(1-(piperidin-4-yl)ethyl)sulfamoyl)phenyl)benzamide] had a 50% inhibitory concentration (IC50) of 30 nM.
With `Cc1cc(S(=O)(=O)N[C@H](C)C2CCNCC2)ccc1NC(=O)c1ccc(Cl)cc1C` [Compound 256A, (R)-4-chloro-2-methyl-N-(2-methyl-4-(N-(1-(piperidin-4-yl)ethyl)sulfamoyl)phenyl)benzamide hydrochloride] the figure was 2 nM.
As for `Cc1ccccc1C(=O)Nc1cc(C)c(S(=O)(=O)N[C@H](C)C2CCNCC2)cc1F` [Compound 257, (R)-N-(2-fluoro-5-methyl-4-(N-(1-(piperidin-4-yl)ethyl)sulfamoyl)phenyl)-2-methylbenzamide hydrochloride], inhibition was half-maximal at 15 nM (IC50).
For the molecule `Cc1cc(S(=O)(=O)N[C@H](C)C2CCNCC2)ccc1NC(=O)c1ccc(F)cc1C` [Compound 258A, (R)-4-fluoro-2-methyl-N-(2-methyl-4-(N-(1-(piperidin-4-yl)ethyl)sulfamoyl)phenyl)benzamide hydrochloride], the IC50 was over 100000 nM.
In the case of `Cc1ccc(C(=O)Nc2ccc(S(=O)(=O)N[C@H](C)C3CCNCC3)cc2C)c(C)c1` [Compound 259A, (R)-2,4-dimethyl-N-(2-methyl-4-(N-(1-(piperidin-4-yl)ethyl)sulfamoyl)phenyl)benzamide hydrochloride], the IC50 was 3 nM.
`Cc1cc(S(=O)(=O)N[C@H](C)C2CCN(C)CC2)c(F)cc1NC(=O)c1ccccc1C` [Compound 262, (R)-N-(5-fluoro-2-methyl-4-(N-(1-(1-methylpiperidin-4-yl)ethyl)sulfamoyl)phenyl)-2-methylbenzamide] yielded an IC50 of 5 nM.
For the molecule `Cc1cc(S(=O)(=O)N[C@@H](C)C2CCN(C)CC2)c(F)cc1NC(=O)c1ccccc1C` [Compound 262A, (S)-N-(5-fluoro-2-methyl-4-(N-(1-(1-methylpiperidin-4-yl)ethyl)sulfamoyl)phenyl)-2-methylbenzamide], the half-inhibitory concentration (IC50) is over 100000 nM.
For the molecule `Cc1ccccc1C(=O)Nc1cc(F)c(S(=O)(=O)N[C@H](C)C2CCN(C)CC2)cc1Cl` [Compound 263, (R)-N-(2-chloro-5-fluoro-4-(N-(1-(1-methylpiperidin-4-yl)ethyl)sulfamoyl)phenyl)-2-methylbenzamide], the IC50 turned out to be 2 nM.
The value for `Cc1ccccc1C(=O)Nc1cc(F)c(S(=O)(=O)N[C@@H](C)C2CCN(C)CC2)cc1Cl` [Compound 263A, (S)-N-(2-chloro-5-fluoro-4-(N-(1-(1-methylpiperidin-4-yl)ethyl)sulfamoyl)phenyl)-2-methylbenzamide hydrochloride] was 282 nM; that for `Cc1ccccc1C(=O)Nc1cc(F)c(S(=O)(=O)NC(C)C2CCN(C)CC2)cc1Cl` (stereo not shown) [Compound 263C, N-(2-chloro-5-fluoro-4-(N-(1-(1-methylpiperidin-4-yl)ethyl)sulfamoyl)phenyl)-2-methylbenzamide] was 15 nM; that for `Cc1ccccc1C(=O)Nc1ccc(S(=O)(=O)N[C@H](C)C2CCN(C)CC2)c(F)c1Cl` [Compound 264, (R)-N-(2-chloro-3-fluoro-4-(N-(1-(1-methylpiperidin-4-yl)ethyl)sulfamoyl)phenyl)-2-methylbenzamide] was 11 nM.
Turning to `COc1ccc(C(=O)Nc2ccc(S(=O)(=O)N[C@H](C)C3CCN(C)CC3)cc2C)c(C)c1` [Compound 266, (R)-4-methoxy-2-methyl-N-(2-methyl-4-(N-(1-(1-methylpiperidin-4-yl)ethyl)sulfamoyl)phenyl) benzamide], the IC50 worked out at 3 nM.
Regarding `Cc1ccccc1C(=O)Nc1cc(C)c(S(=O)(=O)N[C@H](C)C2CCN(C)CC2)cc1Cl` [Compound 267A, (R)-N-(2-chloro-5-methyl-4-(N-(1-(1-methylpiperidin-4-yl)ethyl)sulfamoyl)phenyl)-2-methylbenzamide hydrochloride], the IC50 was found to be 2 nM.
`Cc1cc(S(=O)(=O)N[C@H](C)C2CCN(C)CC2)ccc1NC(=O)c1c(C)cccc1F` [Compound 270, (R)-2-fluoro-6-methyl-N-(2-methyl-4-(N-(1-(1-methylpiperidin-4-yl)ethyl)sulfamoyl)phenyl) benzamide]: the IC50 is 50 nM.
The value for `Cc1cc(S(=O)(=O)N[C@H](C)C2CCN(C)CC2)ccc1NC(=O)c1cc(Cl)ccc1C` [Compound 272, (R)-5-chloro-2-methyl-N-(2-methyl-4-(N-(1-(1-methylpiperidin-4-yl)ethyl)sulfamoyl)phenyl) benzamide] was 1 nM; that for `Cc1cc(S(=O)(=O)N[C@H](C)C2CCN(C)CC2)ccc1NC(=O)c1ccc(Cl)cc1C` [Compound 273A, (R)-4-chloro-2-methyl-N-(2-methyl-4-(N-(1-(1-methylpiperidin-4-yl)ethyl)sulfamoyl)phenyl) benzamide hydrochloride] was 1 nM.
Molecule `Cc1cc(S(=O)(=O)N[C@H](C)C2CCN(C)CC2)ccc1NC(=O)C1CCCCCC1` [Compound 274, (R)-N-(2-methyl-4-(N-(1-(1-methylpiperidin-4-yl)ethyl)sulfamoyl)phenyl) cycloheptane-carboxamide] registered a half-inhibitory concentration (IC50) of 13 nM.
